# Test results taken from patent US5180665A, “Method for quantitatively assaying the presence of diarrhetic shellfish poisoning toxins in marine samples” (priority 1990, dated 1993).
# Where two headings read alike, the source gives them in different places. Numbered stars: 1 amine (or outer) side, 2 acyl side, 3 side chain; on linkers, the order of the positions; unused ones are H or OH. Bridge positions count the residues as written; N and C are the ends. Square brackets hold non-standard residues; d marks the D form. Peptide text beside a SMILES is read from it. Adda = CO[C@@H](Cc1ccccc1)[C@@H](C)/C=C(C)/C=C/[C@H](N[*:1])[C@H](C)C(=O)[*:2]; dAsp(3S-Me) = C[C@H](C(=O)[*:3])[C@@H](N[*:1])C(=O)[*:2]; d(γGlu) = O=C(O)[C@@H](CCC(=O)[*:2])N[*:1]; NMeDha = C=C(NC)C(=O)O
# Columns and labels:
# PP1/PP2A = test: LC-linked protein phosphatase bioassay, cross-reactivity; format: biochemical, rabbit; conditions: result in words
# [1] = test system: protein phosphatase-2A (PP2A); conditions: literature, result in words; cited from earlier work
# [2] = target: protein phosphatase-1 (PP1) catalytic subunit; test: Standard phosphorylase a phosphatase assay, inhibition of PP1 catalytic subunit; format: biochemical, rabbit; conditions: for inhibition of PP1: result in words
# [3] = target: T1, protein phosphatase-2A (PP2A) catalytic subunit (Oryctolagus cuniculus, UniProt P67777); test: Standard phosphorylase a phosphatase assay, inhibition of PP2A catalytic subunit; format: biochemical, rabbit; conditions: for inhibition of PP2A: result in words
# T1 construct: Homogeneous PP-1 and -2A catalytic subunits were purified from rabbit skeletal muscle; from tissue; host or cells: rabbit skeletal muscle
# T1 sequence (P67777 whole entry): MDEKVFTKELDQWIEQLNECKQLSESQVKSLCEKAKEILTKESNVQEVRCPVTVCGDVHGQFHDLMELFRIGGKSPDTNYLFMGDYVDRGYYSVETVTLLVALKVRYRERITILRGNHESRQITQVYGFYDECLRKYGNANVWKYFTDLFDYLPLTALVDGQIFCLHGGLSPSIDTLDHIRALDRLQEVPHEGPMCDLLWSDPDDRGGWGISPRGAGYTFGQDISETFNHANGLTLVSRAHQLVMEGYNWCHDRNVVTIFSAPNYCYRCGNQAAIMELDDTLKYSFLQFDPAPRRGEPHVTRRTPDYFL
# [4] = test system: protein phosphatase-1 (PP1); conditions: literature, result in words; cited from earlier work
# mouse skin = conditions: cited from earlier work
compound,measurement,setting,value
C/C(=C/C=C/[C@@H](C)C(=O)O)[C@H]1CN[C@H](C(=O)O)[C@H]1CC(=O)O [domoic acid],cross-reactivity in the LC-linked protein phosphatase bioassay,PP1/PP2A,does not cross-react
C=C1[C@@H](O)[C@@H]2O[C@]3(CC[C@H](/C=C/[C@@H](C)[C@@H]4CC(C)=C[C@@]5(O[C@H](C[C@@](C)(O)C(=O)O)CC[C@H]5O)O4)O3)CC[C@H]2O[C@@H]1[C@@H](O)C[C@H](C)[C@H]1O[C@@]2(CCCCO2)CC[C@H]1C [okadaic acid],inhibitor of protein phosphatase-2A,[1],potent and specific inhibitor
same,IC50,"[2]; standard phosphorylase a phosphatase assay, 1 mU/ml PP1, pH 7.0, 30° C.",19000 pM
same,IC50,"[3]; PP2A diluted to 0.03 mU/ml in the standard assay, read-out: IC50 for okadaic acid with diluted PP2A",40 pM
same,fold stronger inhibition of PP2A than PP1,"[3]; PP2A relative to PP1, standard assay",90(+10) fold
same,inhibitor of protein phosphatase-1,[4],potent and specific inhibitor
same,tumour promotion,mouse skin; result in words,powerful tumour promoters
same,tumour promoting potency compared with phorbol esters,"mouse skin; two-stage carcinogenesis, mouse skin, versus phorbol esters",comparable potency
dinophysistoxin-1,fold stronger inhibition of PP2A than PP1,[3]; rabbit,90(+10) fold
same,tumour promoting potency compared with phorbol esters,"mouse skin; mouse, in vivo",comparable potency
same,tumour promotion,"mouse skin; mouse, in vivo",powerful tumour promoters
CC[C@@]1([C@@H]2O[C@@H]([C@H]3O[C@@](O)(CO)[C@H](C)C[C@@H]3C)C[C@@H]2C)CC[C@H]([C@]2(C)CC[C@]3(C[C@H](O)[C@@H](C)[C@@H]([C@@H](C)[C@@H](OC)[C@H](C)C(=O)O)O3)O2)O1 [monensin],inhibition of PP1,[2],not inhibited
same,inhibition of PP2A,[3],not inhibited
CO[C@@H]1[C@@H](OC)[C@H](C)[C@@](O)(CC(=O)O)O[C@H]1[C@H](C)[C@H]1O[C@@]2(CC[C@@](C)([C@H]3CC[C@@](C)([C@@H]4O[C@@H]([C@H]5O[C@](C)(O)[C@H](C)C[C@@H]5C)C[C@@H]4O[C@@H]4C[C@H](OC)[C@@H](OC)[C@H](C)O4)O3)O2)C[C@H](O)[C@H]1C [maduramycin],inhibition of PP1,[2],not inhibited
same,inhibition of PP2A,[3],not inhibited
C=C1C(=O)N[C@H](C)C(=O)N[C@@H](CC(C)C)C(=O)N[C@@H](C(=O)O)[C@H](C)C(=O)N[C@@H](CCCNC(=N)N)C(=O)N[C@@H](/C=C/C(C)=C/[C@H](C)[C@H](Cc2ccccc2)OC)[C@H](C)C(=O)N[C@@H](C(=O)O)CCC(=O)N1C [Microcystin-LR] (R[Adda][d(γGlu)][NMeDha][dA]L[dAsp(3S-Me)]-OH; lactam N-7),IC50,[2]; pH 7,100 pM
same,IC50,"[3]; pH 7, read-out: IC50 for PP2A inhibition",100 pM
CC[C@@H](C(=O)[C@@H](C)[C@@H](O)[C@H](C)[C@@H]1O[C@@H]([C@@H](CC)C(=O)O)CC[C@@H]1C)[C@H]1O[C@]2(C=C[C@@H](O)[C@]3(CC[C@@](C)([C@H]4CC[C@](O)(CC)[C@H](C)O4)O3)O2)[C@H](C)C[C@@H]1C [salinomycin],inhibition of PP1,[2],not inhibited
same,inhibition of PP2A,[3],not inhibited
CO[C@@H]1C[C@@H](C[C@H]2CC[C@H](C)[C@H]([C@@H](C)C(=O)O)O2)O[C@]2(O[C@](C)([C@H]3CC[C@@](C)([C@@H]4O[C@@H]([C@H]5O[C@@](O)(CO)[C@H](C)C[C@@H]5C)C[C@@H]4C)O3)C[C@H]2C)[C@@H]1C [nigericin],inhibition of PP1,[2],not inhibited
same,inhibition of PP2A,[3],not inhibited
